The record followed here is ChEMBL document CHEMBL1201862, “PubChem BioAssay data set” (2004).

Structures are written as SMILES.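 In this assay, cells in 96-well plates receive the compound at five concentrations for 48 hours. Endpoints are linearly interpolated between the surrounding concentrations. The concentration for 50% growth inhibition is given as GI50.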 Activity calls are given as the source filed them. Rule as the data show it: active = GI50 up to about 1.1 µM and inactive = higher. Some results are limits rather than exact numbers.

In general, GI50 refers to the concentration that inhibits growth by half.

Holding throughout (assay): DTP human tumour cell line panel, 48 h
Experiment [1] relates to T47D.
In experiment [2] the test system is RPMI-8226.
In experiment [3] the test system is MOLT-4.
The subject of experiment [4] is M14.
The test system of experiment [5] is HCT-15.
The test system of experiment [6] is COLO 205.
The subject of experiment [7] is A498.
In experiment [8] the test system is K562.
In experiment [9] the test system is SK-MEL-28.
Experiment [10] relates to KM12.
For experiment [11], the system named is NCI-H460.
Experiment [12] concerns MDA-MB-435.
The subject of experiment [13] is OVCAR-3.
Experiment [14] relates to CCRF-CEM.
Experiment [15] has as its system TK-10.
Experiment [16] deals with UACC-62.
For experiment [17], the system named is SF-268.
Experiment [18] concerns SK-MEL-5.
Experiment [19] relates to LOX IMVI.
The subject of experiment [20] is SK-OV-3.

`OC1(C(Sc2cc(C(F)(F)F)cc(C(F)(F)F)c2)Sc2cc(C(F)(F)F)cc(C(F)(F)F)c2)C=CCCC1` (stereo not given): the GI50 is 1.25 µM (inactive) in experiment [1]; 1.47 µM (inactive) in [2]; 1.65 µM (inactive) in [3]; 1.81 µM (inactive) in experiment [4]; 1.37 µM in [5]; 1.99 µM (inactive) in [6]. Moreover, the GI50 in experiment [7] was 1.35 µM (inactive); in [8], 1.53 µM (inactive); in experiment [9] it was 2.71 µM (inactive); in experiment [10], 1.73 µM (inactive); in experiment [11] it was 1.33 µM (inactive); in experiment [12], 1.86 µM (inactive). Further, the GI50 is 2.04 µM (inactive) in experiment [13]; 1.61 µM (inactive) in experiment [14]; 1.51 µM (inactive) in experiment [15]; 1.99 µM (inactive) in [16]; 2.54 µM (inactive) in [17]; 9.53 µM (inactive) in [18]. The GI50 was 1.66 µM (inactive) in [19] and 2.67 µM (inactive) in experiment [20].

Consider `O=C(O)c1ccccc1Sc1ccccc1[N+](=O)[O-]`, for which the GI50 in experiment [1] was > 100 µM (inactive); in experiment [2], > 100 µM (inactive); in experiment [3], > 100 µM (inactive); in experiment [4], > 100 µM (inactive); in experiment [5] it was above 100 µM; in [6] it was > 100 µM (inactive). Moreover, the GI50 in experiment [7], in [8], in experiment [9], in experiment [10], in experiment [11] and in [12] was > 100 µM (inactive) in each case. Besides, the GI50 in [13], in experiment [14], in [15], in [16], in [17] and in [18] was > 100 µM (inactive) each time. Also, the GI50 in experiment [19] and in experiment [20] was > 100 µM (inactive) each time.

Regarding `COc1ccc(-c2cc(-c3ccc(Nc4ccnc5cc(Cl)ccc45)cc3)[nH]c(=O)c2C#N)c2ccccc12`, the GI50 in [1] is 1.88 µM (inactive); in experiment [2], 2.6 µM (inactive); in experiment [3] it was 2.13 µM (inactive); in experiment [4], 2.03 µM (inactive); in experiment [5], 8.45 µM; in experiment [6], 2.44 µM (inactive). Besides, the GI50 in experiment [7] is 23.3 µM (inactive); in experiment [8], 2.37 µM (inactive); in [9], 3.34 µM (inactive); in [10], 3.47 µM (inactive); in experiment [11], 11.1 µM (inactive); in experiment [12], 1.87 µM (inactive). Further, the GI50 in experiment [13] was 2.18 µM (inactive); in experiment [14], 1.09 µM (active); in experiment [15], 8.63 µM (inactive); in [16] it was 19.5 µM (inactive); in experiment [17], 12.7 µM (inactive); in experiment [18] it was 13.1 µM (inactive). Further, the figures for the GI50 in [19] and in experiment [20] were 1.36 µM (inactive) and 20.9 µM (inactive), respectively.

As for `N#C[C@](CO)(NC(=O)OCc1ccccc1)C(F)F`, the GI50 in experiment [1] was > 100 µM (inactive); in experiment [2], > 100 µM (inactive); in experiment [3], > 100 µM (inactive); in experiment [4] it was > 100 µM (inactive); in experiment [5], above 100 µM; in experiment [6], > 100 µM (inactive). In addition, the GI50 in experiment [7], in [8], in experiment [9], in [10], in experiment [11] and in experiment [12] was > 100 µM (inactive) in each case. For the same molecule, the GI50 in experiment [13], in experiment [14], in experiment [15], in experiment [16], in [17] and in experiment [18] was > 100 µM (inactive) each time. In addition, the GI50 in experiment [19] and in [20] was > 100 µM (inactive) throughout.

As for `O=C(O)Cc1cccc2c(=O)c3ccccc3oc12`, the GI50 in [1] is 19.1 µM (inactive); in experiment [2] it was > 100 µM (inactive); in [3], > 100 µM (inactive); in experiment [4], > 100 µM (inactive); in [5], 21.1 µM; in [6] it was > 100 µM (inactive). Also, the GI50 in experiment [7], in [8], in experiment [9], in experiment [10], in experiment [11] and in experiment [12] was > 100 µM (inactive) each time. For the same molecule, the GI50 in [13] was > 100 µM (inactive); in experiment [14] it was > 100 µM (inactive); in experiment [15], > 100 µM (inactive); in experiment [16], 24.3 µM (inactive); in experiment [17], > 100 µM (inactive); in experiment [18], > 100 µM (inactive). In addition, the GI50 in experiment [19] was > 100 µM (inactive); in experiment [20], 17.7 µM (inactive).

Take `CCOC(=O)N1CCC2(CC1)C[C@](Sc1ccccc1)(C(C)=O)[C@H](C)O2`: the GI50 in [1] is > 100 µM (inactive); in [2], > 100 µM (inactive); in [3], > 100 µM (inactive); in experiment [4], > 100 µM (inactive); in [5], above 100 µM; in [6], > 100 µM (inactive). For the same molecule, the GI50 in [7], in experiment [8], in experiment [9], in experiment [10], in [11] and in experiment [12] was > 100 µM (inactive) throughout. In addition, the GI50 was > 100 µM (inactive) in [13]; 12.1 µM (inactive) in experiment [14]; > 100 µM (inactive) in [15]; > 100 µM (inactive) in [16]; > 100 µM (inactive) in experiment [17]; > 100 µM (inactive) in experiment [18]. Moreover, the GI50 in experiment [19] and in experiment [20] was > 100 µM (inactive) in each case.

Take `C#CCN1CCN(C(=S)N/N=C(\C)c2ccccn2)CC1`: the GI50 is 0.0016 µM (active) in experiment [1]; 0.01 µM (active) in [2]; 0.01 µM (active) in experiment [3]; 0.0263 µM (active) in experiment [4]; 0.01 µM in experiment [5]; 0.01 µM (active) in experiment [6]. The GI50 in experiment [7] is 2.15 µM (inactive); in experiment [8], 0.01 µM (active); in [9], 1.36 µM (inactive); in [10], 0.161 µM (active); in experiment [11], 0.619 µM (active); in [12], 1.49 µM (inactive). Also, the GI50 in [13] was < 0.057 µM (active); in experiment [14] it was 0.01 µM (active); in [15], 3.28 µM (inactive); in experiment [16] it was 0.0252 µM (active); in experiment [17] it was 0.889 µM (active); in experiment [18], 1.36 µM (inactive). For the same molecule, the 50% growth inhibitory concentration (GI50) in [19] was 0.01 µM (active); in [20], 0.877 µM (active).

On to `CCCCCCCCCCCCN(CC(O)C(O)C(OC1OC(CO)C(O)C(O)C1O)C(O)CO)C(=O)CCCCCCCCCCC` (stereo not given), for which the GI50 is 28.1 µM (inactive) in experiment [1]; 29 µM (inactive) in experiment [2]; 25.1 µM (inactive) in [3]; 19.5 µM (inactive) in experiment [4]; 18.6 µM in experiment [5]; 20.4 µM (inactive) in [6]. Besides, the GI50 in [7] is 24.7 µM (inactive); in experiment [8], 19 µM (inactive); in experiment [9], 17.5 µM (inactive); in experiment [10], 20.2 µM (inactive); in experiment [11], 20.5 µM (inactive); in experiment [12] it was 16.8 µM (inactive). Also, the GI50 in experiment [13] is 21.8 µM (inactive); in experiment [14], 31.9 µM (inactive); in [15] it was 16.3 µM (inactive); in [16] it was 20.2 µM (inactive); in [17], 20.1 µM (inactive); in [18] it was 17.5 µM (inactive). The GI50 in experiment [19] was 21.3 µM (inactive); in [20] it was 22.3 µM (inactive).

As to `Nc1ncnc2c1ncn2C1OC(CO)C(O)C1NS(=O)(=O)c1ccccc1` (stereo not given), the GI50 in [1] was > 100 µM (inactive); in experiment [2] it was > 100 µM (inactive); in [3], > 100 µM (inactive); in experiment [4], > 100 µM (inactive); in experiment [5], above 100 µM; in experiment [6], > 100 µM (inactive). For the same molecule, the GI50 in [7], in experiment [8], in experiment [9], in experiment [10], in experiment [11] and in [12] was > 100 µM (inactive) each time. The GI50 in experiment [13], in experiment [14], in [15], in experiment [16], in [17] and in [18] was > 100 µM (inactive) throughout. Also, the GI50 in [19] and in [20] was > 100 µM (inactive) each time.

As for `Nc1ccc(CCN2CCN(CCCc3ccccc3)CC2)cc1`, the GI50 in experiment [1] was 14.7 µM (inactive); in experiment [2], 46.7 µM (inactive); in experiment [3] it was 50.4 µM (inactive); in [4], 39.4 µM (inactive); in [5], 21.7 µM; in experiment [6] it was 27.7 µM (inactive). Also, the GI50 is > 100 µM (inactive) in experiment [7]; 24.2 µM (inactive) in experiment [8]; > 100 µM (inactive) in [9]; 82.8 µM (inactive) in experiment [10]; 63.4 µM (inactive) in experiment [11]; > 100 µM (inactive) in experiment [12]. Further, the GI50 in experiment [13] is 48.1 µM (inactive); in [14], 48.2 µM (inactive); in experiment [15], > 100 µM (inactive); in experiment [16], > 100 µM (inactive); in experiment [17] it was > 100 µM (inactive); in [18], 29.6 µM (inactive). For the same molecule, the GI50 in experiment [19] is 63.7 µM (inactive); in experiment [20], > 100 µM (inactive).
